Measured values: PMC11243320, “Tailoring Fibroblast-Activation Protein Targeting for Theranostics: A Comparative Preclinical Evaluation of the ^68Ga- and ^177Lu-Labeled Monomeric and Dimeric Fibroblast-Activation Protein Inhibitors DOTA.SA.FAPi and DOTAGA.(SA.FAPi)2” (Molecules, 2024)

Legend:
[1] = Lipophilicity LogD octanol/PBS pH 7.4, shake-flask method; assay type: physicochemical
Experimental: (§1) The lipophilicity (LogDoctanol/PBS) and protein binding of the four radiotracers in human serum were determined as described in the Supplemental Data. […]
minimum conjugate amount. Briefly, the Ge-68/Ga-68 generator was eluted with 5 mL HCl 0.1 N and the eluate (~300 MBq) was loaded onto a cation exchange column (Strata-XC, Phenomenex). […]
After the labeling with gallium-68 or lutetium-177 and the quality control of the generated radiotracers, one equivalent of either natGa(NO3)3 or natLuCl3∙6H2O was added to the relevant radiolabeling solutions. […] The homogeneity was determined by HPLC, […]
Lipophilicity /Protein Binding Studies and Metabolic Stability in Human Serum The lipophilicity (LogD Octanol/PBS, pH 7.4) was estimated by the “shake –flask” method: the labelled conju-gate (20 pmol; 0.3 MBq) was added to a 1:1 mixture of 1-octanol (500 μL) and PBS (500 μL, pH 7.4). […] From each phase, an aliquot (50 μL) was pipetted out and measured in a gamma counter. […] The partition coefficient was calculated as the average log ratio of the radioactivity in the organic fraction and […]

human serum proteins = assay: Binding to human serum proteins, 30 min incubation; assay type: in vitro ADME; conditions: 37 °C
Experimental: as §1
minimum conjugate amount. Briefly, the Ge-68/Ga-68 generator was eluted with 5 mL HCl 0.1 N and the eluate (~300 MBq) was loaded onto a cation exchange column (Strata-XC, Phenomenex). Gallium-68 was eluted with 700 μL of a mixture of 5.5 M NaCl / 0.1 M HCl (prepared by mixing 0.530 mL of ultrapure 30% aq. HCl and 49.5 mL of 5.5M NaCl) directly into a vial containing 400 μL of 1.8 M sodium acetate buffer (pH 4.3) for DOTA.SA.FAPi or 2 mL 1.45 M HEPES (pH 4.1) for DOTAGA.(SA.FAPi)2, 2 mL H2O (only in case of DOTA.SA.FAPi), 200 μL of EtOH, and 20 μg (approximately 20 nmol) of the conjugate, followed by Sep-Pak C-18 purification to remove uncomplexed gallium-68. The purified [68Ga]Ga-DOTA.SA.FAPi and [68Ga]Ga-DO,TAGA.(SA.FAPi)2 were eluted in 2.7 mL of a solution of 12% EtOH in PBS. […]
The 68Ga- and 177Lu-labelled radiotracers (20 pmol; 0.3 MBq) were incubated with commercially available human serum (0.5 mL) at 37 °C for 30 min. […] After careful separation of the two phases, the respective activities were measured in a gamma counter, followed by determination of the percentage of the radiotracer that bound […]

Lipophilicity LogDoctanol/PBS-pH7.4 [1]	Percentage of human serum protein bound activity (human serum proteins) [%]	Structure (SMILES)
−3.38 ± 0.03	10.6 ± 3.9	N#C[C@@H]1CC(F)(F)CN1C(=O)CNC(=O)c1ccnc2ccc(OCCCCNc3c(NCCNC(=O)CN4CCN(CC(=O)[O-])CCN(CC(=O)[O-])CCN(CC(=O)[O-])CC4)c(=O)c3=O)cc12.[68Ga+3] [[^68Ga]Ga-DOTA.SA.FAPi]
−2.86 ± 0.06	9.9 ± 4.4	N#C[C@@H]1CC(F)(F)CN1C(=O)CNC(=O)c1ccnc2ccc(OCCCCNc3c(NCCNC(=O)CN4CCN(CC(=O)[O-])CCN(CC(=O)[O-])CCN(CC(=O)[O-])CC4)c(=O)c3=O)cc12.[177Lu+3] [[^177Lu]Lu-DOTA.SA.FAPi]
